Assay [1] has as its target T1, EP2 (Homo sapiens, UniProt P43116). The experiment in a line: EP2 cAMP assay. Type of assay: cell-based. From the text: (§1) U.S. patent application Ser. No. 11/553,143, filed on Oct. 26, 2006, incorporated by reference herein, describes the methods used to obtain the in vitro data in the table below.
The target in another assay is T2, hEP3A (Homo sapiens, UniProt P43115).
T2 sequence (P43115 1-390): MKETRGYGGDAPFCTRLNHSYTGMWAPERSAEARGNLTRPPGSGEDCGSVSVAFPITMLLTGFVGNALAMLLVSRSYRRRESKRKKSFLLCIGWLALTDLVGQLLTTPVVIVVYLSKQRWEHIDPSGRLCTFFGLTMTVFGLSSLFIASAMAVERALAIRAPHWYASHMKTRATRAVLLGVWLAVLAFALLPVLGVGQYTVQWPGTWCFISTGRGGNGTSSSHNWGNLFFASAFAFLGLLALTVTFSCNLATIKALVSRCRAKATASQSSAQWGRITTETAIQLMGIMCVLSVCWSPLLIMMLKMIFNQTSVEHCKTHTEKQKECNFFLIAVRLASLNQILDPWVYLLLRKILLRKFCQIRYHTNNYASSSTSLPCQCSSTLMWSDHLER
Put plainly: Other receptors functional EC50, hEP3A. The format is cell-based.
Excerpt: as §1

A further assay addresses EP4 (Homo sapiens, UniProt P35408). Put plainly: EP4 binding (KI).
Excerpt: as §1

For another assay, the target named is T3, hEP1 (Homo sapiens, UniProt P34995).
T3 sequence (P34995 1-402): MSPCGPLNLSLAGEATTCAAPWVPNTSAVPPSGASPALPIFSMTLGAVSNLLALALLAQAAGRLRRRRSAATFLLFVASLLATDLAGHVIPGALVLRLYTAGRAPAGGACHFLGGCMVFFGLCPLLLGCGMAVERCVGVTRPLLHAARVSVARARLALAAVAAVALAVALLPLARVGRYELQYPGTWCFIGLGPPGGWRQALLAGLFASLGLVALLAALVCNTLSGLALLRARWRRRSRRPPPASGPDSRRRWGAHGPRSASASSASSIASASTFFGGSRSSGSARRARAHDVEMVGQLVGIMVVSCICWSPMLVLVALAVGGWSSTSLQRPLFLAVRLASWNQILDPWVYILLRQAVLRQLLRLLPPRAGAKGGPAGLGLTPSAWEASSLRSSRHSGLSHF
Put plainly: Other receptors functional EC50, hEP1. Type of assay: cell-based.
Excerpt: as §1

Another assay addresses T4, hDP (Homo sapiens, UniProt Q13258).
T4 sequence (Q13258 1-359): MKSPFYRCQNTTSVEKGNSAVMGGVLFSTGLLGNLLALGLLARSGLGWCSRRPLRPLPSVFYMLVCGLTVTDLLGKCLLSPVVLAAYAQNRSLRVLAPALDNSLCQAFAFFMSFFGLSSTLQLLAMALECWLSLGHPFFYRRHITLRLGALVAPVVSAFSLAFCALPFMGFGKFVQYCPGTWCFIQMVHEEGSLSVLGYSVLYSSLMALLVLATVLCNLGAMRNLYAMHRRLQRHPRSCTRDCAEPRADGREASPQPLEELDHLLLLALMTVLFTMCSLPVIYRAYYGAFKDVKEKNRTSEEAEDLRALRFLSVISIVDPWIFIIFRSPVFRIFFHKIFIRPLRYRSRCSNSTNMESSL
The experiment in a line: Other receptors functional EC50, hDP. Type of assay: cell-based.
Excerpt: as §1

In assay [2] the target is T1, EP2. Put plainly: EP2 flipr assay. The format is cell-based.
Excerpt: as §1

The next assay concerns the target T5, hTP (Homo sapiens, UniProt P21731).
T5 sequence (P21731 1-343): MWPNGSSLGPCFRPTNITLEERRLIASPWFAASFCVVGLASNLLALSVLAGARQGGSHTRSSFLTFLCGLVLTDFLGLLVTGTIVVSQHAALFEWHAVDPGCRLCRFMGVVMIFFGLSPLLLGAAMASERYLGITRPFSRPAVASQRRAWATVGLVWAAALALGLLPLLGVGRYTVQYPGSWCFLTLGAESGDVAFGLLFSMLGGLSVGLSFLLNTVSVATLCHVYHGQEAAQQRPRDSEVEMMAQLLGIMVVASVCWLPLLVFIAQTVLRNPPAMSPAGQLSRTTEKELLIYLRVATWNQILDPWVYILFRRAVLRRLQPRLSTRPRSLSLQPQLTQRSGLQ
The experiment in a line: Other receptors functional EC50, hTP. The format is cell-based.
Excerpt: as §1

In assay [3] the target is T1, EP2. The experiment in a line: EP2 binding (Ki).
Excerpt: as §1

Another assay deals with hIP (Homo sapiens, UniProt P43119). Put plainly: Other receptors functional EC50, hIP. Type of assay: cell-based.
Excerpt: as §1

A further assay deals with hFP (Homo sapiens, UniProt P43088). Put plainly: Other receptors functional EC50, hFP. The format is cell-based.
Excerpt: as §1

pEC50, pKi: −log10 of the molar value.

For 3 compounds, EC50 and Ki results are on record in US7589213B2 (priority 2007, dated 2009).

As usually defined, the pEC50 is the EC50 on a negative log10 scale, so that one unit is a factor of ten. Read a high pEC50 as a low EC50. In general, EC50 refers to the concentration giving half of the maximal effect. Low values mean an effect from little substance, high ones a need for much substance. As usually defined, the pKi is −log10 of the Ki, conventionally taken in molar units.

T1 sequence (P43116 whole entry): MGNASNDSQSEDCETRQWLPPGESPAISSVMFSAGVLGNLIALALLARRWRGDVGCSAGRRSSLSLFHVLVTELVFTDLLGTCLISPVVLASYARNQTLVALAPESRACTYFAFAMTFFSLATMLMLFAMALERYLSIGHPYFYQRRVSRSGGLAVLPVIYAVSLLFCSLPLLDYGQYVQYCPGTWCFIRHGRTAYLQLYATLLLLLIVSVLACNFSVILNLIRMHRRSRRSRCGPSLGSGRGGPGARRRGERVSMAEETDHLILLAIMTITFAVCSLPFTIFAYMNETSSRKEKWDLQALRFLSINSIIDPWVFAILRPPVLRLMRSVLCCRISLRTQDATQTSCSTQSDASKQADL
Sequence of hIP (P43119 whole entry): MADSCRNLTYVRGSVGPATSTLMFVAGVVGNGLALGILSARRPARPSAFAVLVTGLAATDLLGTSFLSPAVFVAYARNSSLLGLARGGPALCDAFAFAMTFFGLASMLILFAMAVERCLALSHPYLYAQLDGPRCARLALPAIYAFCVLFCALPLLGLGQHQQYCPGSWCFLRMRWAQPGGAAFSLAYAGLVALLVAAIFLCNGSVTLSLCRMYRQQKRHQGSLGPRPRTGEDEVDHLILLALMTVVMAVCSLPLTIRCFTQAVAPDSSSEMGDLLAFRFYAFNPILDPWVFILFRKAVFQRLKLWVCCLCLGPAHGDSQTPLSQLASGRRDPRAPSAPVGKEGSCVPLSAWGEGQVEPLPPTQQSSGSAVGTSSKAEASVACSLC
Sequence of EP4 (P35408 whole entry): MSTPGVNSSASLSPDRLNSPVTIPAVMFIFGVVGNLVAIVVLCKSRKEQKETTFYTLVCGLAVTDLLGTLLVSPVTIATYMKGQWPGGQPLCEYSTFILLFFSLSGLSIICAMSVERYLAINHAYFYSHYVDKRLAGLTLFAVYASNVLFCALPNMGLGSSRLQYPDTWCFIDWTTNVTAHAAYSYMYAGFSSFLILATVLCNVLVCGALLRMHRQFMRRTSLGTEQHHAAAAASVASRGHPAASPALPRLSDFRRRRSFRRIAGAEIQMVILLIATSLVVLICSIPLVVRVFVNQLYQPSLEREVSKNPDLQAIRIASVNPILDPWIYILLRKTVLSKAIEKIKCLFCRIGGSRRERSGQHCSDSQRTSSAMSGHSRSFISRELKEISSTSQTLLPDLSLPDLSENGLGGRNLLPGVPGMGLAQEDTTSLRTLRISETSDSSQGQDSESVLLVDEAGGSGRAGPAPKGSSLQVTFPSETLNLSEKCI
Sequence of hFP (P43088 whole entry): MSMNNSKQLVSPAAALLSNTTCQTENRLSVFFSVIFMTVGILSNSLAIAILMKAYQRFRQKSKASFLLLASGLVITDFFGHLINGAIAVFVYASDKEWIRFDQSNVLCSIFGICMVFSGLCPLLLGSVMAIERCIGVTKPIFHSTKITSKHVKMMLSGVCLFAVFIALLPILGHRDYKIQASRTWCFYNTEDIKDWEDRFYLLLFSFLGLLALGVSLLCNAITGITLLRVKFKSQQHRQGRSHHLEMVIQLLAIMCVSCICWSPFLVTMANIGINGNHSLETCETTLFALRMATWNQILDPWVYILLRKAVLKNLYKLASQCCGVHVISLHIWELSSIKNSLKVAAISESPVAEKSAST

Take `CCCCCC(O)c1ccc(N2C(=O)CC[C@@H]2CCSc2nc(C(=O)O)cs2)cc1` (stereo partly drawn) [compound 14, (R)-2-(2-(1-(4-(1-hydroxyhexyl)phenyl)-5-oxopyrrolidin-2-yl)ethylthio)thiazole-4-carboxylic acid]: the results for the pEC50 at EP2 [1] and at EP2 [2] were 9.72 and 7.44, respectively. Besides, the EC50 was 44 nM at hEP3A; more than 10000 nM on hEP1; more than 10000 nM at hDP; more than 10000 nM at hTP; more than 10000 nM at hIP. Besides, the pKi is less than 5.00 at EP4 and 7.96 on EP2 [3].

In the case of `CCCCCC(O)c1ccc(N2C(=O)CC[C@@H]2CCSc2ncc(C(=O)O)s2)cc1` (stereo partly drawn) [compound 22, (R)-2-(2-(1-(4-(1-hydroxyhexyl)phenyl)-5-oxopyrrolidin-2-yl)ethylthio)thiazole-5-carboxylic acid], the pEC50 is 8.40 on EP2 [1] and 5.75 on EP2 [2]. In addition, the figures for the 50% effective concentration (EC50) at hEP3A, on hDP and on hIP were 11400 nM, more than 10000 nM and more than 10000 nM, respectively. Besides, the negative logarithm of the Ki (pKi) at EP4 was less than 5.00; on EP2 [3] it was 6.41.

Regarding `O=C(O)c1ccc(COC[C@H]2CCC(=O)N2c2ccc(-c3nccs3)cc2)s1` [compound 58, (R)-5-(((5-oxo-1-(4-(thiazol-2-yl)phenyl)pyrrolidin-2-yl)methoxy)methyl)thiophene-2-carboxylic acid], the results for the pEC50 on EP2 [1] and on EP2 [2] were 7.42 and 5.23, respectively. For the same compound, the EC50 at hDP is 4640 nM; on hFP it was more than 10000 nM; on hTP, more than 10000 nM. On EP2 [3], the pKi is 6.67.
